Data on 2 compounds can be found in patent US8067393B2 (priority 2005, dated 2011).

Assay [1] addresses T1, ConA (Canavalia ensiformis, UniProt P02866). The class given is binding. How it is done:
A PBS-T (0.05%) solution containing glucose, maltose, GlcNAc, galactose, or lactose as a sugar chain at a concentration of 400 mM was prepared.
First, a PBS-T (0.05%) solution containing ConA or RCA120 at a concentration of 2 μM was prepared as a lectin solution, and the lectin solution was introduced to 96-well titer plate by adding 10 μl in each well. Then, a glucose solution, a maltose solution, or a GlcNAc solution was added to a ConA-added well by 20 μl in each well. A galactose solution or a lactose solution was added to a RCA120-added well by 20 μl in each well. The resulting solutions were stirred at a room temperature for 1 hour. […] The resulting solutions were stirred at a room temperature for 1 hour. After the stirring, absorbance of the stirred solutions at 525 nm was measured.
Values below the “after” column are IC50 obtained in a case where the sugar chain was added to an aggregate of the lectin and the colloid solution. Values below the “before” column are IC50 obtained in a case where the colloid solution was added to the admixture of the lectin and the sugar chain.

For assay [2], the target named is T1, ConA. In words: Dissociation of ConA from maltose-ConA interactant by added glucose. The format is binding. As to conditions: visual observation. How it is done: 100 μl of PBS-T (0.05%) solution containing ConA at 250 μg/ml was placed in an Eppendorf tube. […] Then, a mixture solution was vortexed for at least 10 seconds. Thereafter, the resulting mixture solution was left for approximately 2 hours, and a sugar-protein interactant was precipitated out of the mixture solution by centrifugation. Then, supernatant thereof was removed, and the sugar-protein interactant was washed with PBS-T (0.05%) solution and water several times. After the washing, 100 μl of 200 mM glucose aqueous solution was added to the sugar-protein interactant, and the resulting mixture solution was left for approximately 1 hour.
First, 25 μl of PBS-T (0.05%) solution containing RCA120 at 250 μg/ml was placed in an Eppendorf tube. To the solution was added 25 μl of the colloid solution of lactose-immobilized gold nanoparticles which was prepared in Example 4. Then, a mixture solution was vortexed for at least 10 seconds. Thereafter, the resulting mixture solution was left for approximately 2 hours, and a sugar-protein interactant (lactose-RCA interactant) was precipitated out of the mixture solution by centrifugation. Then, supernatant thereof was removed, and the sugar-protein interactant was washed with PBS-T (0.05%) solution and water several times. […] The results were evaluated by visual observation and UV-Vis measurement. […]

The target of a further assay is RCA120 (Ricinus communis, UniProt P06750). The class given is binding, caster bean. Set-up: key to Degree of dissociation: ⊚: lectin was completely dissociated; ◯: lectin was almost completely dissociated; Δ: lectin was dissociated with residual sugar-protein interactant (aggregate); X: the lactose-RCA120 interactant kept in aggregated state, and lectin was not dissociated therefrom.

Molecules are shown by their SMILES. Read-outs that look alike come from different tables or passages of the source.

As to `CC(=O)N[C@H]1C(O)O[C@H](CO)[C@@H](O)[C@@H]1O` (some centres unmarked) [GlcNAc, N-acetyl glucosamine], the IC50 (as a rule, the concentration needed to halve the response being measured) on ConA [1] (read-out: IC50 after) stood at 80.1 mM; on ConA [1] (read-out: IC50 before), 22.9 mM.
For the compound `O=C[C@H](O)[C@@H](O)[C@@H](O)[C@H](O)CO` [galactose], the “concentration of added sugar solution at which excellent ConA dissociation was observed” value on ConA [2] is no less than 50 mM. For the same compound, on RCA120, the Degree of dissociation entry is “Δ and X and ◯”; the “concentration of added sugar solution at which excellent RCA120 dissociation was observed” value is no less than 25 mM.
